Experimental data taken from US20200291018A1, “TAM KINASE INHIBITORS” (SYROS PHARMACEUTICALS, INC., priority 2017, published 2020).
pIC50: −log10 of the molar value.

Assays:
FLT3 = biological target: T1, FLT3 (Homo sapiens, UniProt P36888); experiment: TR-FRET kinase activity assay, FLT3; format: biochemical; conditions: ATP at Km, 60 minutes
T1 sequence (P36888 27-993): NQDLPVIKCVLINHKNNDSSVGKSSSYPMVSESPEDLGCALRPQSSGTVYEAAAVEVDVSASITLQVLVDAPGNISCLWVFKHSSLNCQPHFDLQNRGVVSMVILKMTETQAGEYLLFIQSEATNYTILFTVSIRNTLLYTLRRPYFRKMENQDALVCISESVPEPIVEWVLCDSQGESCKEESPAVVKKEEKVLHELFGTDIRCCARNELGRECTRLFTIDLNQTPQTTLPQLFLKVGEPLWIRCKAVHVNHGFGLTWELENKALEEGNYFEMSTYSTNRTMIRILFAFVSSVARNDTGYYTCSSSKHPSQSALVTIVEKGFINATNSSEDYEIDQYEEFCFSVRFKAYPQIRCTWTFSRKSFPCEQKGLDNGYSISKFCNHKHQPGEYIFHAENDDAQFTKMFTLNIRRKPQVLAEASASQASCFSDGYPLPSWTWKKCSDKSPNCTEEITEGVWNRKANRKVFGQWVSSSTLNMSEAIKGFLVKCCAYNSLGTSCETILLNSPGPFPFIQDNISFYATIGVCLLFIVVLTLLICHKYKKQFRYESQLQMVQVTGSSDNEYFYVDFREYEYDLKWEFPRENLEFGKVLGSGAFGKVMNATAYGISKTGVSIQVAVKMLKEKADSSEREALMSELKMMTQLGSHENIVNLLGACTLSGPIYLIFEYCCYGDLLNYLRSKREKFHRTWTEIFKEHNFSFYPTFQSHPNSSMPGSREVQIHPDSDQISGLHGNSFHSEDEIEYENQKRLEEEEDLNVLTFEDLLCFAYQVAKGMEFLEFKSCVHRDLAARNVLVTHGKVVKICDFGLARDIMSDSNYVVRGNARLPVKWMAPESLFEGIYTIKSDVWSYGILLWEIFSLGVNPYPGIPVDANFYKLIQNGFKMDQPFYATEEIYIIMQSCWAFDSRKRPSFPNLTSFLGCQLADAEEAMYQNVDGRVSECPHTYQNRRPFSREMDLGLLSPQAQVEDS
In short: (§1)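 IC50 came from TR-FRET signal after 30 min dark development with a Europium-labeled phospho-specific antibody. This followed a 60 min RT reaction, stopped with EDTA, started with ATP at Km per enzyme. Peptide substrate, enzyme and compound were premixed in HEPES pH 7.5 buffer with MgCl2, EGTA, Brij 35 and DTT.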

AXL = biological target: T2, AXL (Homo sapiens, UniProt P30530); experiment: TR-FRET kinase activity assay, AXL; format: biochemical; conditions: ATP at Km, 60 minutes
T2 sequence (P30530 26-894): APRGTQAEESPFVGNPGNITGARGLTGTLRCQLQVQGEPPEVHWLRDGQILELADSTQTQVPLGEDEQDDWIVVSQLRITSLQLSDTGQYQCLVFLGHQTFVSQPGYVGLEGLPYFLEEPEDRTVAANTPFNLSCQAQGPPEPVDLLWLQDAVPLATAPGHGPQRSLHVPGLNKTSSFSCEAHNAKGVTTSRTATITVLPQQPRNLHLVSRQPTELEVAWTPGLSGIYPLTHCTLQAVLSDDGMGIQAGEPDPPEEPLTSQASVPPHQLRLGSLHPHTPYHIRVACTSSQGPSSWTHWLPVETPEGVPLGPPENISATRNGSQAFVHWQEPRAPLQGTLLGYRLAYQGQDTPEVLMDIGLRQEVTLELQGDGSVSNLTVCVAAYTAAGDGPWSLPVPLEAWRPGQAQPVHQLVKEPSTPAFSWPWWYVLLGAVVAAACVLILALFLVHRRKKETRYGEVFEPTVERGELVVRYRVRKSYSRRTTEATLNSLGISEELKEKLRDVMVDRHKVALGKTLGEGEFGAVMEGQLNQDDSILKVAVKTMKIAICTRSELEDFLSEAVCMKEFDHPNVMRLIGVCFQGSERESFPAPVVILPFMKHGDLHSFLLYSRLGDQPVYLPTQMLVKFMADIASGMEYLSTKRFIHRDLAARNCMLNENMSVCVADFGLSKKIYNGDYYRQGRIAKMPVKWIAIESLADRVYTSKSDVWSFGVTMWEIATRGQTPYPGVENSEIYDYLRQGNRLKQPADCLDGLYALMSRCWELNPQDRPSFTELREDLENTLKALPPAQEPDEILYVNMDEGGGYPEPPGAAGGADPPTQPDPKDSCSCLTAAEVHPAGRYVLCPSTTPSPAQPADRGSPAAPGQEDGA
In short: as §1

SMILES	pIC50 (FLT3)	pIC50 (AXL)
C[C@@H](CC(F)(F)F)Nc1ncc2c(O[C@@H]3C[C@H]4CC[C@@H](C3)N4C[C@@H]3CCCO3)ncc([C@H]3CC[C@H](O)CC3)c2n1 [Compound 421]	≥ 7.00	≥ 7.00
C[C@@H](CC(F)(F)F)Nc1ncc2c(O[C@H]3C[C@@H](O)C3)ncc(-c3ccc(C4(C#N)CC4)cc3)c2n1 [Compound 409]	6.00 to 7.00	5.00 to 6.00
